Assay results reported in patent US6972296B2, “Carboxylic acid derivatives that inhibit the binding of integrins to their receptors” (Encysive Pharmaceuticals Inc., priority 1999, dated 2005).

Target: T1, α4β1 integrin (Homo sapiens, UniProt P05556+P13612)
T1 construct: endogenous in cells; host or cells: Ramos cells
Experiment: Adhesion of calcein-labeled Ramos cells to CS1 (fibronectin) peptide conjugated ovalbumin
Assay type: cell-based
Details: Ramos cell adhesion to CS1 conjugated ovalbumin
Protocol: A procedure in which a 26-amino acid peptide containing the CS1 sequence of fibronectin with an N-terminal Cys ([…]) was coupled to maleimide activated ovalbumin was used to determine the efficacy of the compounds synthesized. Bovine serum albumin (BSA) and CS1 conjugated ovalbumin were coated onto 96-well polystyrene plates at 0.5 μg/ml in TBS (50 mM TRIS, pH 7.5; 150 mM NaCl) at 4° C. for 16 hours. The plates were washed three times with TBS and blocked with TBS containing 3% BSA at room temperature for 4 hours. Blocked plates were washed three times in binding buffer (TBS; 1 mM MgCl2; 1 mM CaCl2; 1 mM MnCl2) prior to assay. Ramos cells fluorescently labeled with calcein AM were resuspended in binding buffer (10^7 cells/ml) and diluted 1:2 with same buffer with or without compound. 100 μM of compound was added. The cells were added immediately to the wells (2.5×10^5 cells/well) and incubated for 30 minutes at 37° C. Following three washes with binding buffer, adherent cells were lysed and quantitated using a fluorometer. IC50 is defined as the dose required to give 50% inhibition, measured in μM for Tables 2 and 4. The lower the IC50 value and the greater the percentage of inhibition, the more efficient the compound is at prevention of cell adhesion.

[1] = Table 5, dose required to give 50% inhibition
[2] = Table 7, dose required to give 50% inhibition

T1 sequence (P13612 34-1032): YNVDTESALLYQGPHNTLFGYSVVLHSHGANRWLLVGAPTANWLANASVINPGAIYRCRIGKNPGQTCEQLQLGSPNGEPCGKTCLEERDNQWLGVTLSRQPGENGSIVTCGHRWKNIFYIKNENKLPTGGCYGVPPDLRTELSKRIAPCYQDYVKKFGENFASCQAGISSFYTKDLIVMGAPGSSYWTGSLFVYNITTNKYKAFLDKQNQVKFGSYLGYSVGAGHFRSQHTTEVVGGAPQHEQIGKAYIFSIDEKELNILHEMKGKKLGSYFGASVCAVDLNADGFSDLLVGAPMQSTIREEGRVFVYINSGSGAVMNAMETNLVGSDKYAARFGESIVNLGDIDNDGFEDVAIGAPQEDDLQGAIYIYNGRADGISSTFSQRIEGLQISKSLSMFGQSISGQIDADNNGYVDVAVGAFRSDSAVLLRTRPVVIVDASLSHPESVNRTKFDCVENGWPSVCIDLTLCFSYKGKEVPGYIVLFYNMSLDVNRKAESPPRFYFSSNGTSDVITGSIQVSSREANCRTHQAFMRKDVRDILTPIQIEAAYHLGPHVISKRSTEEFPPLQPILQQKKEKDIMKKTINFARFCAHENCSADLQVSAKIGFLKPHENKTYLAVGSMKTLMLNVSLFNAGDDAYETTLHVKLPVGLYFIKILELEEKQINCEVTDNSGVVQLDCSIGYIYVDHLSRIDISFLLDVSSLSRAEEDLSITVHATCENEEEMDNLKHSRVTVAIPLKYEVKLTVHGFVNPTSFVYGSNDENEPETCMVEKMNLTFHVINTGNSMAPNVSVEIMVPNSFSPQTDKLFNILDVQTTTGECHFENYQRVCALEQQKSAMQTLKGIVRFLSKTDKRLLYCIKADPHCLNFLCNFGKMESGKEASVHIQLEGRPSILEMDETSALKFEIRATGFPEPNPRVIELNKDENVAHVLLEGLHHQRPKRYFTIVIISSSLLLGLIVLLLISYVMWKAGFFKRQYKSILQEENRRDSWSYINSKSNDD
T1 sequence (P05556 21-798): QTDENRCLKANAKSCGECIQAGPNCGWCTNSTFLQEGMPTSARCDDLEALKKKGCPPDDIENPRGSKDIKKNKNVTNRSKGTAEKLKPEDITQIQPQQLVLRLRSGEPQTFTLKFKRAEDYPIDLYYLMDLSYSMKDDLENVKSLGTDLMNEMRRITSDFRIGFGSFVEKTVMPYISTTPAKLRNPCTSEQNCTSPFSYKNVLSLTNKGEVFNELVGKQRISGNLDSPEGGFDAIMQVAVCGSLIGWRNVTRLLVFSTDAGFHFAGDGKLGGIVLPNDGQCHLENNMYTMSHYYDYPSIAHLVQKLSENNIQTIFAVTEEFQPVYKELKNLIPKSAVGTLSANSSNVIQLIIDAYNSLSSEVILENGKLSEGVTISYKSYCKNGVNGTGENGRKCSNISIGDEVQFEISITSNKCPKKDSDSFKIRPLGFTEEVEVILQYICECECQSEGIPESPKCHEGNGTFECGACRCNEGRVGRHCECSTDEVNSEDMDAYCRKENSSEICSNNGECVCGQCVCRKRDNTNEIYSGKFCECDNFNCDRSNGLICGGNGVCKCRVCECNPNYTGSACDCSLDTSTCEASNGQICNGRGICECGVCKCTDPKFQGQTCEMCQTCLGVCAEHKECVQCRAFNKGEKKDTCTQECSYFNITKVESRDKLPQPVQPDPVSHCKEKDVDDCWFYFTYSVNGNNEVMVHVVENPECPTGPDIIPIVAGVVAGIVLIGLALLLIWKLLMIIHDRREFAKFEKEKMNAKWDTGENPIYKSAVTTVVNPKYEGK

SMILES: CCOc1cccc([C@H](CC(=O)O)NC(=O)Nc2c(O)c3ccccc3n(Cc3ccccc3Cl)c2=O)c1
- IC50 (Table 6, 30 minutes at 37° C.): 12 nM

SMILES: CCCCOc1cccc([C@H](CC(=O)O)NC(=O)Nc2c(O)ccn(Cc3ccccc3Cl)c2=O)c1 [(3S)-3-(3-butoxyphenyl)-3-[({[1-(2-chlorobenzyl)-4-hydroxy-2-oxo-1,2-dihydropyridin-3-yl]amino}carbonyl)amino]propanoic acid]
- IC50 [1]: 5 nM

SMILES: O=C(O)C[C@H](NC(=O)Nc1cccn(CC2CCCC2)c1=O)c1ccc2c(c1)OCO2 [(3S)-3-(1,3-benzodioxol-5-yl)-3-[({[1-(cyclopentylmethyl)-2-oxo-1,2-dihydro-3-pyridinyl]amino}carbonyl)amino]propanoic acid]
- IC50 (Table 4, 30 minutes at 37° C.): 6000 nM

SMILES: O=C(O)C[C@H](NC(=O)Nc1cccn(Cc2cccc(C(F)(F)F)c2)c1=O)c1ccc2c(c1)OCO2
- IC50 (Table 4, 30 minutes at 37° C.): 800 nM

SMILES: CCCCOc1ccc([C@H](CC(=O)O)NC(=O)Nc2c(O)ccn(Cc3ccccc3Cl)c2=O)cc1OCCCC
- IC50 [1]: 25 nM

SMILES: Cc1cccc(Cl)c1Cn1c2c(c(O)c(NC(=O)N[C@@H](CC(=O)O)c3cccc(N(C)S(C)(=O)=O)c3)c1=O)CCC2 [(3S)-3-{[({1-[(2-chloro-6-methylphenyl)methyl]-4-hydroxy-2-oxo-2,5,6,7-tetrahydro-1H-cyclopenta[b]pyridin-3-yl}amino)carbonyl]amino}-3-{3-[methyl(methylsulfonyl)amino]phenyl}propanoic acid]
- IC50 [2]: 1.3 nM

SMILES: Cc1ccc([C@H](CC(=O)O)NC(=O)Nc2c(N3CCC3)ccn(Cc3ccccc3Cl)c2=O)cc1 [(3S)-3-{[({4-(1-azetanyl)-1-[(2-chlorophenyl)methyl]-2-oxo-1,2-dihydro-3-pyridinyl}amino)carbonyl]amino}-3-(4-methylphenyl)propanoic acid]
- IC50 (Table 3, 30 minutes at 37° C.): 5 nM

SMILES: Cc1cccc(Cl)c1Cn1c2c(c(O)c(NC(=O)N[C@@H](CC(=O)O)c3ccc4[nH]ccc4c3)c1=O)CCC2 [(3S)-3-{[({1-[(2-chloro-6-methylphenyl)methyl]-4-hydroxy-2-oxo-2,5,6,7-tetrahydro-1H-cyclopenta[b]pyridin-3-yl}amino)carbonyl]amino}-3-(1H-indol-5-yl)propanoic acid]
- IC50 [2]: 2 nM

SMILES: COc1cccc(Cl)c1Cn1ccc(O)c(NC(=O)N[C@@H](CC(=O)O)c2ccc(OC(F)(F)F)cc2)c1=O
- IC50 [1]: 40 nM

SMILES: Cc1ccc([C@H](CC(=O)O)NC(=O)Nc2cccn(Cc3c(F)cccc3F)c2=O)cc1
- IC50 (Table 4, 30 minutes at 37° C.): 300 nM

SMILES: CCOc1cc([C@H](CC(=O)O)NC(=O)Nc2c(O)c3c(n(Cc4ccccc4Cl)c2=O)CCC3)cc(Cl)c1OCC
- IC50 [2]: 3 nM

SMILES: CCOc1cccc(Cl)c1Cn1c(C)c(CC)c(O)c(NC(=O)N[C@@H](CC(=O)O)c2ccccc2)c1=O
- IC50 [2]: 4 nM

SMILES: CCc1ccc([C@H](CC(=O)O)NC(=O)Nc2c(O)c3c(n(Cc4c(C)cccc4Cl)c2=O)CCC3)cc1
- IC50 [2]: 15 nM

SMILES: COc1ccc([C@H](CC(=O)O)NC(=O)Nc2c(O)c3c(n(Cc4ccccc4Cl)c2=O)CCC3)cc1F
- IC50 [2]: 3 nM

SMILES: O=C(O)C[C@H](NC(=O)Nc1cccn(Cc2ccccc2Cl)c1=O)c1ccc2c(c1)CCO2
- IC50 (Table 4, 30 minutes at 37° C.): 40 nM

SMILES: CCN(c1cccc([C@H](CC(=O)O)NC(=O)Nc2c(O)c3c(n(Cc4ccccc4Cl)c2=O)CCC3)c1)S(C)(=O)=O [(3S)-3-{[({1-[(2-chlorophenyl)methyl]-4-hydroxy-2-oxo-2,5,6,7-tetrahydro-1H-cyclopenta[b]pyridin-3-yl}amino)carbonyl]amino}-3-{3-[ethyl(methylsulfonyl)amino]phenyl}propanoic acid]
- IC50 [2]: 1 nM

SMILES: O=C(O)C[C@H](NC(=O)Nc1cccn(Cc2cc(Cl)cc(Cl)c2)c1=O)c1ccc2c(c1)OCO2
- IC50 (Table 4, 30 minutes at 37° C.): 5000 nM

SMILES: COc1cccc(Cl)c1Cn1ccc(O)c(NC(=O)N[C@@H](CC(=O)O)c2ccc(C)cc2)c1=O [(3S)-3-[({[1-(2-chloro-6-methoxybenzyl)-4-hydroxy-2-oxo-1,2-dihydropyridin-3-yl]amino}carbonyl)amino]-3-(4-methylphenyl)propanoic acid]
- IC50 [1]: 3 nM

SMILES: CCOc1cc([C@H](CC(=O)O)NC(=O)Nc2c(O)c3c(n(Cc4ccccc4Cl)c2=O)CCC3)ccc1-c1ccccc1
- IC50 [2]: 20 nM

SMILES: Cc1cn(Cc2ccccc2Cl)c(=O)c(NC(=O)N[C@@H](CC(=O)O)c2ccc3c(ccn3C)c2)c1O
- IC50 (Table 6, 30 minutes at 37° C.): 3 nM

SMILES: CCOc1cccc(Cl)c1Cn1c2c(c(O)c(NC(=O)N[C@@H](CC(=O)O)c3cccc(OC(C)C)c3)c1=O)CCC2
- IC50 [2]: 4 nM

SMILES: COc1cc(C)c([C@H](CC(=O)O)NC(=O)Nc2c(O)ccn(Cc3ccccc3Cl)c2=O)cc1C
- IC50 [1]: 80 nM

SMILES: CCCc1cn(Cc2ccccc2Cl)c(=O)c(NC(=O)N[C@@H](CC(=O)O)c2cccc(OCC)c2)c1O [(3S)-3-[({[1-(2-chlorobenzyl)-4-hydroxy-2-oxo-5-propyl-1,2-dihydropyridin-3-yl]amino}carbonyl)amino]-3-(3-ethoxyphenyl)propanoic acid]
- IC50 [1]: 3 nM

SMILES: COc1cccc(Cl)c1Cn1ccc(O)c(NC(=O)N[C@@H](CC(=O)O)c2cccc(C)c2)c1=O [(3S)-3-[({[1-(2-chloro-6-methoxybenzyl)-4-hydroxy-2-oxo-1,2-dihydropyridin-3-yl]amino}carbonyl)amino]-3-(3-methylphenyl)propanoic acid]
- IC50 [1]: 5 nM

SMILES: O=C(O)C[C@H](NC(=O)Nc1c(O)ccn(Cc2ccccc2Cl)c1=O)c1cccc(F)c1
- IC50 (Table 3, 30 minutes at 37° C.): 40 nM

SMILES: Cc1ccc([C@H](CC(=O)O)NC(=O)Nc2c(N3CCN(C)CC3)ccn(Cc3ccccc3Cl)c2=O)cc1
- IC50 (Table 3, 30 minutes at 37° C.): 3 nM

SMILES: O=C(O)C[C@H](NC(=O)Nc1c(O)c2c(n(Cc3ccccc3Cl)c1=O)CCC2)c1cccc(C(F)F)c1
- IC50 [2]: 4 nM

SMILES: Cc1ccc([C@H](CC(=O)O)NC(=O)Nc2cccn(Cc3cc(Cl)ccc3F)c2=O)cc1
- IC50 (Table 4, 30 minutes at 37° C.): 2500 nM

SMILES: CCCc1cn(Cc2ccc(Cl)cc2)c(=O)c(NC(=O)N[C@@H](CC(=O)O)c2cccc(OCC)c2)c1O
- IC50 [1]: 30 nM

SMILES: COc1cccc(Cl)c1Cn1cc(C)c(O)c(NC(=O)N[C@@H](CC(=O)O)c2ccc(C)c(C)c2)c1=O
- IC50 (Table 6, 30 minutes at 37° C.): 3 nM

SMILES: Cc1ccc([C@H](CC(=O)O)NC(=O)Nc2c(O)c(C)cn(Cc3c(C)cccc3Cl)c2=O)cc1C
- IC50 (Table 6, 30 minutes at 37° C.): 45 nM

SMILES: CCOc1cccc([C@H](CC(=O)O)NC(=O)Nc2c(O)c3c(n(Cc4c(Cl)cccc4OCCOC)c2=O)CCC3)c1
- IC50 [2]: 4 nM

SMILES: Cc1ccc([C@H](CC(=O)O)NC(=O)Nc2cccn(Cc3c(C)cc(C)cc3C)c2=O)cc1
- IC50 (Table 4, 30 minutes at 37° C.): 2500 nM

SMILES: CC(C)Oc1cccc([C@H](CC(=O)O)NC(=O)Nc2c(O)ccn(Cc3ccccc3Cl)c2=O)c1 [(3S)-3-[({[1-(2-chlorobenzyl)-4-hydroxy-2-oxo-1,2-dihydropyridin-3-yl]amino}carbonyl)amino]-3-(3-isopropoxyphenyl)propanoic acid]
- IC50 (Table 6, 30 minutes at 37° C.): 3 nM

SMILES: CC(C)Oc1cccc([C@H](CC(=O)O)NC(=O)Nc2c(O)c3c(n(Cc4ccccc4Cl)c2=O)CCC3)c1 [(3S)-3-[({[1-(2-chlorobenzyl)-4-hydroxy-2-oxo-2,5,6,7-tetrahydro-1H-cyclopenta[b]pyridin-3-yl]amino}carbonyl)amino]-3-(3-isopropoxyphenyl)propanoic acid]
- IC50 (Table 6, 30 minutes at 37° C.): 3 nM

SMILES: Cc1cccc(Cl)c1Cn1c2c(c(O)c(NC(=O)N[C@@H](CC(=O)O)c3ccc(Cl)c(OC(C)C)c3)c1=O)CCC2
- IC50 [2]: 23 nM

SMILES: COc1ccccc1Cn1ccc(O)c(NC(=O)N[C@@H](CC(=O)O)c2ccc(C)cc2)c1=O
- IC50 [1]: 80 nM

SMILES: Cc1ccc([C@H](CC(=O)O)NC(=O)Nc2c(O)ccn(Cc3ccc(F)cc3)c2=O)cc1
- IC50 [1]: 22 nM

SMILES: COCCOCCOc1ccn(Cc2ccccc2Cl)c(=O)c1NC(=O)N[C@@H](CC(=O)O)c1ccc(C)cc1
- IC50 (Table 3, 30 minutes at 37° C.): 2 nM
